From the supplement of paper PMC10307832

Assays:
Experiment in all cases: relative viability (nuclei count vs DMSO), 5 days (fraction); higher = more cells survive
[1] = compound: CC(C)CCN1c2nc(Nc3cc(F)c(O)c(F)c3)ncc2N(C)C(=O)C1C [BI-D1870] + C[C@@H](Oc1cc(-c2cnn(C3CCNCC3)c2)cnc1N)c1c(Cl)ccc(F)c1Cl [Crizotinib] (partner 1 µM)
In short: (§1)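 Relative viability divides the nuclei count in treated wells by that in vehicle wells. Lung cancer cell lines were seeded in 1536-well plates, dosed by pin tool the next day, and fixed and stained after 5 days in one step with final 0.05% Triton X-100, 1% formaldehyde and 1 ug/ml Hoechst. Dosing was a single drug or a fixed anchor-drug dose plus five library-drug doses (not always all listed) in √10 steps, and values are medians of duplicate plates imaged at 4×.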

[2] = compound: O=c1ncccn1[C@@H]1O[C@H](CO)[C@@H](O)[C@H]1O [Zebularine] + CC(C)C[C@H](NC(=O)[C@H](Cc1ccccc1)NC(=O)c1cnccn1)B(O)O [Bortezomib] (partner 0.002 µM)
In short: as §1

[3] = compound: CC(C)CCN1c2nc(Nc3cc(F)c(O)c(F)c3)ncc2N(C)C(=O)C1C [BI-D1870] + CC(=O)c1c(C)c2cnc(Nc3ccc(N4CCNCC4)cn3)nc2n(C2CCCC2)c1=O [Palbociclib] (partner 0.5 µM)
In short: as §1

[4] = compound: O=c1ncccn1[C@@H]1O[C@H](CO)[C@@H](O)[C@H]1O [Zebularine] + O=C(CCCCCCC(=O)Nc1ccccc1)NO [Vorinostat] (partner 1 µM)
In short: as §1

| Cell Line | relative viability ([1]; first compound 0.04 µM) | relative viability ([1]; first compound 0.1265 µM) | relative viability ([1]; first compound 0.4 µM) | relative viability ([1]; first compound 1.265 µM) | relative viability ([1]; first compound 4 µM) | relative viability ([2]; first compound 1 µM) | relative viability ([2]; first compound 3.162 µM) | relative viability ([2]; first compound 10 µM) | relative viability ([2]; first compound 31.62 µM) | relative viability ([2]; first compound 100 µM) | relative viability ([3]; first compound 0.04 µM) | relative viability ([3]; first compound 0.1265 µM) | relative viability ([3]; first compound 0.4 µM) | relative viability ([3]; first compound 1.265 µM) | relative viability ([3]; first compound 4 µM) | relative viability ([4]; first compound 1 µM) | relative viability ([4]; first compound 3.162 µM) | relative viability ([4]; first compound 10 µM) | relative viability ([4]; first compound 31.62 µM) | relative viability ([4]; first compound 100 µM) |
| --- | --- | --- | --- | --- | --- | --- | --- | --- | --- | --- | --- | --- | --- | --- | --- | --- | --- | --- | --- | --- |
| NCI-H2087 | 0.918 | 0.914 | 1 | 1.11 | 0.739 | 0.977 | 0.747 | 0.512 | 0.662 | 0.321 | 0.239 | 0.2 | 0.265 | 0.196 | 0.208 | 1.1 | 0.652 | 0.285 | 0.667 | 0.303 |
| NCI-H2126 | 1.09 | 1.07 | 0.994 | 1.04 | 1.01 | 1.19 | 1.02 | 0.953 | 1.11 | 0.809 | 0.369 | 0.4 | 0.38 | 0.33 | 0.357 | 0.664 | 0.524 | 0.853 | 0.698 | 0.474 |
| NCI-H2228 | 0.645 | 0.479 | 0.374 | 0.435 | 0.329 | 1.17 | 0.924 | 0.46 | 0.837 | 0.354 | 0.97 | 0.771 | 0.688 | 0.713 | 0.627 | 0.825 | 0.671 |  | 0.412 | 0.377 |
| NCI-H2347 | 0.812 | 0.674 | 0.7 | 0.662 | 0.577 | 0.768 | 0.925 | 0.594 | 0.582 | 0.542 | 0.385 | 0.426 | 0.407 | 0.453 | 0.4 | 0.608 | 0.653 | 0.457 | 0.431 | 0.387 |
| NCI-H2405 | 0.952 | 0.863 | 0.836 | 0.94 | 0.795 | 1.03 | 0.801 | 0.778 | 0.969 | 0.565 | 0.58 | 0.525 | 0.523 | 0.565 | 0.49 | 1.2 | 0.981 | 0.894 | 1 | 0.826 |
| NCI-H3122 | 0.283 | 0.275 | 0.293 | 0.28 | 0.325 | 1.04 | 0.991 | 1 | 1.05 | 1.08 | 0.187 | 0.176 | 0.211 | 0.267 | 0.216 | 1.14 | 0.937 | 0.792 | 1.09 | 0.996 |
| PC-3 [JPC-3] | 1.01 | 0.898 | 1.05 | 1.05 | 0.97 | 0.912 | 0.772 | 0.464 | 0.729 | 0.591 | 0.578 | 0.511 | 0.53 | 0.567 | 0.478 | 1.01 | 0.874 | 0.785 | 0.737 | 0.658 |
| PC-14 | 1.03 | 0.909 | 0.797 | 0.923 | 0.768 | 1.05 | 0.743 | 0.147 | 0.115 | 0.0976 | 0.56 | 0.468 | 0.474 | 0.356 | 0.138 | 0.756 | 0.439 | 0.214 | 0.154 | 0.0885 |
| RERF-LC-KJ | 0.892 | 0.853 | 0.847 | 0.857 | 0.792 | 1.11 | 0.996 | 0.92 | 1.36 | 1.25 | 1.14 | 0.994 | 1.03 | 1.02 | 0.766 | 0.734 | 0.738 | 0.633 | 0.762 | 0.683 |
| SK-LU-1 | 1.14 | 0.81 | 0.88 | 0.859 | 0.315 | 1.3 | 0.913 | 0.576 | 0.737 | 0.502 | 0.384 | 0.361 | 0.329 | 0.404 | 0.318 | 0.891 | 0.725 | 0.557 | 0.555 | 0.487 |
| SW 1573 | 1.01 | 0.808 | 0.876 | 0.905 | 0.597 | 1.13 | 0.896 | 0.78 | 1.07 | 0.584 | 0.435 | 0.347 | 0.332 | 0.25 | 0.17 | 0.964 | 0.689 |  | 0.772 | 0.521 |
